Source: BindingDB's records for doi:10.1021/jm049227l (Molecular Discovery, 2005)

Target: Albumin (Homo sapiens, UniProt P02768)
Experiment: Binding affinity towards human serum albumin

Chain of Albumin (P02768 whole entry): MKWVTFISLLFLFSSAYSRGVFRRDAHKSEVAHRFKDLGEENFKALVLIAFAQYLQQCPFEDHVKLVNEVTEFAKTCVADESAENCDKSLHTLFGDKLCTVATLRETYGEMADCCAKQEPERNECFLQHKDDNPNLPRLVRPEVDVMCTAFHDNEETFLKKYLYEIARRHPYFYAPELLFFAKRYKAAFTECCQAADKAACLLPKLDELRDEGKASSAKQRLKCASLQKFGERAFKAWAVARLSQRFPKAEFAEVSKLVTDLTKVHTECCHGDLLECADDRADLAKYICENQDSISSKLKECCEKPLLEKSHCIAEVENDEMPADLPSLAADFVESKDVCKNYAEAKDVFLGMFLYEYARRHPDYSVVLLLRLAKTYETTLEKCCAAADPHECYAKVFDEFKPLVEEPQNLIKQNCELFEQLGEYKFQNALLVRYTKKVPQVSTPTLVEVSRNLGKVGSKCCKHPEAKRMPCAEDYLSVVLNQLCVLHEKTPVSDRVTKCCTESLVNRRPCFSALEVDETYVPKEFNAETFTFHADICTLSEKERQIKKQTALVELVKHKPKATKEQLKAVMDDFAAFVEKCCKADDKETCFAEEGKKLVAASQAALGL

| Compound | Association constant (Ka) [M⁻¹] | Ki [M⁻¹] |
| --- | --- | --- |
| Cc1cc(CC(=O)O)n(C)c1C(=O)c1ccc(Cl)cc1 | 109000 | – |
| O=C(O)c1cccc(-c2ccccc2)c1 | 251000 | – |
| Nc1cccc(-c2ccc(O)c(C(=O)O)c2)c1 | 2750 | – |
| CC(C)Cc1ccc([C@@H](C)C(=O)N[C@H](C)C(=O)O)cc1 | 39800 | – |
| CC(C)Cc1ccc([C@@H](C)C(=O)NCCCN(C)C)cc1 | 5010 | – |
| C[C@@H](C(=O)NCCN1CCCC1)c1ccc(OS(=O)(=O)C(F)(F)F)cc1 | 3890 | – |
| CC(C)(C)c1ccc(O)c(C(=O)O)c1 | 20400 | – |
| CC(Cc1ccc([C@@H](C)C(=O)NS(C)(=O)=O)cc1)C(=O)O (stereo not given in full) | 3890 | – |
| NCc1cc(-c2ccc(C(=O)O)cc2)ccc1F | 1000 | – |
| O=C(O)c1cccc(-c2cc(C(F)(F)F)cc(C(F)(F)F)c2)c1 | 3090 | – |
| CC(C)NCC(O)c1ccc(NS(C)(=O)=O)cc1 (racemic) [Sotalol,(-)] | 354 | – |
| Oc1ccc(-c2ccccc2)cc1 [4-Hydroxybiphenyl] | 9540 | – |
| CC(C)Cc1ccc([C@@H](C)C(=O)NS(C)(=O)=O)cc1 [(R)-2-(4-isobutylphenyl)-N-(methylsulfonyl)propanamide] | 1.65e+06 | – |
| O=C(O)c1ccc(-c2ccccc2)cc1 [Biphenyl-4-carboxylic acid] | 199000 | – |
| Cc1ccc(S(=O)(=O)NC(=O)NN2CCCCCC2)cc1 [CHEBI:9613] | 53700 | – |
| C[C@@H](C(=O)NS(C)(=O)=O)c1ccc(OS(=O)(=O)C(F)(F)F)cc1 [DF-2156A] | 831000 | – |
| NS(=O)(=O)c1cc2c(cc1Cl)NCNS2(=O)=O [JFD00715] | 2290 | – |
| O=C(c1ccccc1)c1ccc2n1CCC2C(=O)O (stereo not given) [Toradol] | 208000 | – |

The next lines start with the values.

| Association constant (Ka) [M⁻¹] | Ki [M⁻¹] | Compound |
| --- | --- | --- |
| – | 15100 | CS(=O)(=O)Nc1ccc([N+](=O)[O-])cc1Oc1ccccc1 |
| 1000 | – | NCc1ccc(-c2ccc(C(=O)O)cc2)cc1 |
| 2690 | – | C[C@@H](C(=O)NCCCN1CCCC1)c1ccc(OS(=O)(=O)C(F)(F)F)cc1 |
| 23900 | – | O=C(O)c1cccc(-c2ccc(Cl)cc2Cl)c1 |
| 7760 | – | Nc1cccc(-c2cccc(C(=O)O)c2)c1 |
| 8120 | – | CC(C)Cc1ccc([C@@H](C)C(=O)NCCOCCO)cc1 |
| 81200 | – | COc1ccc2c(c1)CN(c1ccc(C(C)C(=O)O)cc1)C2=O (stereo not given) |
| 5750 | – | O=C(O)c1cccc(-c2cc(Cl)cc(Cl)c2)c1 |
| 19000 | – | C[C@@H](C(N)=O)c1ccc(OS(=O)(=O)C(F)(F)F)cc1 |
| 6160 | – | Nc1ccc(-c2cccc(C(=O)O)c2)cc1 |
| 26300 | – | CC(C)c1ccc(O)c(C(=O)O)c1 |
| 331000 | – | CC(C(=O)O)c1ccc(-c2ccccc2)c(F)c1 (racemic) [2-(2-fluoro-[1,1'-biphenyl-4-yl])propanoic acid] |
| 39800 | – | CCCNC(=O)NS(=O)(=O)c1ccc(Cl)cc1 [1-(4-chlorophenylsulfonyl)-3-propylurea] |
| 416000 | – | Cc1ccc(C(=O)c2ccc(CC(=O)O)n2C)cc1 [2-(1-methyl-5-(4-methylbenzoyl)-1H-pyrrol-2-yl)acetic acid] |
| 100000 | – | O=C(O)c1cc(-c2ccccc2)ccc1O [2-Hydroxy-5-phenylbenzoic acid] |
| 21300 | – | O=C(O)c1cc(Cl)ccc1O [5-Chloro-2-hydroxy-benzoic acid] |
| 26300 | – | CC1=C(CC(=O)O)c2cc(F)ccc2/C1=C\c1ccc([S+](C)[O-])cc1 (stereo not given) [Sulindac] |
